For one series, the target named is DNMT1 (Homo sapiens, UniProt P26358). The series can be described thus: Selective depletion of DNMT1 by Western blot in treated HCT116 cells. In kind it is cell-based. Further details: Protein extracts (equivalent to 100 μg) were isolated from HCT116 cells; endogenous in cells; host or cells: HCT116. As to conditions: for % DNMT1 protein level remaining at 5 µM: HCT-116, 5 μM; for % DNMT1 protein level remaining at 10 µM: HCT-116, 10 μM. The text has this:
Biol. 2005, 11, 4727-41.]. For DNMT1, commercially available antibodies from Santa Cruz or New England Biolabs were used.

Values joined by “and” are separate entries in the source; they are usually repeats but may differ in a detail not shown here. Identical values can stand only once. Counter-ions that a name gives are not always drawn. Some results are limits rather than exact numbers.

Sequence of DNMT1 (P26358 whole entry): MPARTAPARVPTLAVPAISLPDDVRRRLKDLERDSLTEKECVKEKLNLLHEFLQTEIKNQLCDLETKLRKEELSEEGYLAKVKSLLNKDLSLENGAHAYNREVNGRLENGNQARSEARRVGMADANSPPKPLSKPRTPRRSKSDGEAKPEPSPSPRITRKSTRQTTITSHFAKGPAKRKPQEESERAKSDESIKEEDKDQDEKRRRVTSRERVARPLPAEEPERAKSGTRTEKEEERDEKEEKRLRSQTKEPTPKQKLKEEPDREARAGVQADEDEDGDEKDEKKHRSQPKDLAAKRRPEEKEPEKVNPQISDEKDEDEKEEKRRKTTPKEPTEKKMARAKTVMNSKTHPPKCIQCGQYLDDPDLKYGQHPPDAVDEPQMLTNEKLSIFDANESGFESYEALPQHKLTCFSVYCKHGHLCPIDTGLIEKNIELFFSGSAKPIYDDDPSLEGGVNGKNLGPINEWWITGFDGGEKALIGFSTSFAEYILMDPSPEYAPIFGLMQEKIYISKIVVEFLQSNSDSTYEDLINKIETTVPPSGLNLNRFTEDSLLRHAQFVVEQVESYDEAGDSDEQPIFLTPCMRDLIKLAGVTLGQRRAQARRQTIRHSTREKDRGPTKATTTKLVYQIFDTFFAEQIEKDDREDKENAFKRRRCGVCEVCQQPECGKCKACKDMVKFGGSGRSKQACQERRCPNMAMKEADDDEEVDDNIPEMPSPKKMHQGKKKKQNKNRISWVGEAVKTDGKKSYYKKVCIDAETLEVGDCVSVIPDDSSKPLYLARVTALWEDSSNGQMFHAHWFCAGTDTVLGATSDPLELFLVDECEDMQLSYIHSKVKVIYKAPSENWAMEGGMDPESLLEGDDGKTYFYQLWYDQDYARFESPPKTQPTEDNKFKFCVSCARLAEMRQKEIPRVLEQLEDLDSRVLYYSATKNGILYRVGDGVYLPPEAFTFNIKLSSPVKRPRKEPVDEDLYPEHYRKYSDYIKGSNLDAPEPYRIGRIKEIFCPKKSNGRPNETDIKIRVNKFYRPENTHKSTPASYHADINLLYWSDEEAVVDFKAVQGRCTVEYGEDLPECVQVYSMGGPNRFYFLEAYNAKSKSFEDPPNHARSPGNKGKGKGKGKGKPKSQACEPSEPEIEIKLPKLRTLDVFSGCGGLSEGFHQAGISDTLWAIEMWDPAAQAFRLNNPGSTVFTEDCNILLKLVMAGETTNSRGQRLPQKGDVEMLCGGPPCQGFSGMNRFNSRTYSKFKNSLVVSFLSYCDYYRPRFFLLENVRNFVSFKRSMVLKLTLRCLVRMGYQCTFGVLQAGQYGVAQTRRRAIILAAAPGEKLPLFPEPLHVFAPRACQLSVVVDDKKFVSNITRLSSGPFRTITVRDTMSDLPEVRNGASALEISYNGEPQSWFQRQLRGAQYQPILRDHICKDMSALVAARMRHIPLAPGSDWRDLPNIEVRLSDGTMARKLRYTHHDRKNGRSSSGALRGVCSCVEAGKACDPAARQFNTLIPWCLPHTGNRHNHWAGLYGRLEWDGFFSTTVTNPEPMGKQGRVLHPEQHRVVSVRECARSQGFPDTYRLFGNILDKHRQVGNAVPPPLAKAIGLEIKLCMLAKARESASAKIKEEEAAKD

As to `C[n+]1ccc(Nc2cccc(NC(=O)c3ccc(Nc4ccnc5ccccc45)cc3)c2)cc1` (as salt: chloride) [Cpd. A, 1-methyl-4-(3-{[4-(4-quinolinylamino)benzoyl]amino}anilino)pyridinium chloride], the melting point fell in the range of 253 to 257 °C.
On the same count and under the same terms, the value for `Cc1cc(Nc2cccc(C(=O)Nc3ccc(Nc4ccnc5ccc(N(C)C)cc45)cc3)c2)nc(N)n1` (as salt: chloride) [Cpd. EE, 4-[4-({3-[(2-amino-6-methyl-4-pyrimidinyl)amino]benzoyl}amino)anilino]-6-(dimethylamino)quinolinium chloride] was over 300 °C; that for `C[n+]1ccc(Nc2cccc(NC(=O)c3ccc(Nc4ccnc5ccc([N+](=O)[O-])cc45)cc3)c2)cc1` (as salt: chloride) [Cpd. F, 1-methyl-4-(3-{[4-(6-nitro-4-quinolinylamino)benzoyl]amino}anilino)pyridinium chloride] was 273 to 277 °C.
The molecule `C[n+]1ccc(Nc2ccc(C(=O)Nc3ccc(Nc4ccnc5ccc(N)cc45)cc3)cc2)cc1` (as salt: chloride) [Cpd. N, 4-[4-({4-[(6-amino-4-quinolinyl)amino]anilino}carbonyl)anilino]-1-methylpyridinium chloride] yielded a melting point of over 300 °C.
In the case of `C/C(=N\N=C(N)N)c1cccc(C(=O)Nc2ccc(Nc3ccnc4ccc(N(C)C)cc34)cc2)c1` (as salt: chloride) [Cpd. QQ, 4-[4-({3-[(1E)-N-(diaminomethylene)ethanehydrazonoyl]-benzoyl}amino)anilino]-6-(dimethylamino)quinolinium chloride], the melting point is over 280 °C.
Still for that read-out and setting: the value for `C[n+]1ccc(Nc2cccc(NC(=O)c3ccc(Nc4ccnc5cc([N+](=O)[O-])ccc45)cc3)c2)cc1` (as salt: chloride) [Cpd. R, 1-methyl-4-[3-({4-[(7-nitro-4-quinolinyl)amino]benzoyl}amino)anilino]pyridinium chloride] was 303 °C (dec.); that for `C[n+]1ccc(Nc2ccc(NC(=O)c3ccc(Nc4ccnc5ccccc45)cc3)cc2)cc1` (as salt: hydrochloride) [Cpd. B, 1-methyl-4-(4-(4-(quinolin-4-ylamino)benzamido)phenylamino)pyridinium chloride hydrochloride] was over 300 °C.
Regarding `Cc1cc(Nc2ccc(NC(=O)c3ccc(Nc4ccnc5cc(N(C)C)ccc45)cc3)cc2)nc(N)n1` (as salt: hydrochloride) [Cpd. BB, N-[4-(2-amino-6-methylpyrimidin-4-ylamino)phenyl]-4-(7-(dimethylamino)quinolin-4-ylamino)benzamide hydrochloride], the melting point was 272 to 275 °C.
With `Cc1cc(Nc2cccc(C(=O)Nc3ccc(Nc4ccnc5ccccc45)cc3)c2)nc(N)n1` (as salt: hydrochloride) [Cpd. FF1, 3-[(2-amino-6-methyl-4-pyrimidinyl)amino]-N-[4-(4-quinolinylamino)phenyl]benzamide dihydrochloride], the melting point is over 300 °C.
`Nc1cc(Nc2cccc(C(=O)Nc3ccc(Nc4ccnc5ccccc45)cc3)c2)nc(N)n1` (as salt: hydrochloride) [Cpd. FF2, 3-[(2,6-Diamino-4-pyrimidinyl)amino]-N-[4-(4-quinolinylamino)-phenyl]benzamide dihydrochloride] had a melting point of over 300 °C.
As for `C[n+]1ccc(Nc2ccc(NC(=O)c3ccc(Nc4ccnc5ccc([N+](=O)[O-])cc45)cc3)cc2)cc1` (as salt: hydrochloride) [Cpd. G, 1-methyl-4-(4-(4-(6-nitroquinolin-4-ylamino)benzamido)phenylamino)pyridinium chloride hydrochloride], the melting point fell in the range of 183 to 187 °C.
In the case of `Cc1cc(Nc2ccc(C(=O)Nc3ccc(Nc4ccnc5cc(N)ccc45)cc3)cc2)nc(N)n1` (as salt: hydrochloride) [Cpd. GG2, 4-[(2-Amino-6-methyl-4-pyrimidinyl)amino]-N-{4-[(7-amino-4-quinolinyl)amino]phenyl}benzamide dihydrochloride], the melting point is 257 to 262 °C and 257 to 261 °C.
As for `Cc1cc(Nc2ccc(C(=O)Nc3ccc(Nc4ccnc5ccc(N)cc45)cc3)cc2)nc(N)n1` (as salt: hydrochloride) [Cpd. GG3, 4-[(2-amino-6-methyl-4-pyrimidinyl)amino]-N-{4-[(6-amino-4-quinolinyl)amino]phenyl}benzamide dihydrochloride], the melting point was over 300 °C.
The molecule `Cc1cc(Nc2ccc(C(=O)Nc3ccc(Nc4ccnc5ccc([N+](=O)[O-])cc45)cc3)cc2)nc(N)n1` (as salt: hydrochloride) [Cpd. GG4, 4-[(2-Amino-6-methyl-4-pyrimidinyl)amino]-N-{4-[(6-nitro-4-quinolinyl)amino]phenyl}benzamide dihydrochloride] registered a melting point of 295 to 300 °C.
For `Cc1cc(Nc2ccc(C(=O)Nc3ccc(Nc4ccnc5cc([N+](=O)[O-])ccc45)cc3)cc2)nc(N)n1` (as salt: hydrochloride) [Cpd. GG5, 4-[(2-Amino-6-methyl-4-pyrimidinyl)amino]-N-{4-[(7-nitro-4-quinolinyl)amino]phenyl}benzamide dihydrochloride], the melting point is over 300 °C.
For the molecule `Cc1cc(Nc2ccc(NC(=O)c3ccc(Nc4ccnc5ccc([N+](=O)[O-])cc45)cc3)cc2)nc(N)n1` (as salt: hydrochloride) [Cpd. H, N-(4-(2-amino-6-methylpyrimidin-4-ylamino)phenyl)-4-(6-nitroquinolin-4-ylamino)benzamide hydrochloride], the melting point was 301 to 305 °C.
Consider `Cc1cc(Nc2ccc(C(=O)Nc3ccc(Nc4ccnc5ccc(N(C)C)cc45)cc3)cc2)nc(N)n1` (as salt: hydrochloride) [Cpd. HH, 4-[(2-amino-6-methyl-4-pyrimidinyl)amino]-N-(4-{[6-(dimethylamino)-4-quinolinyl]amino}phenyl)benzamide dihydrochloride], for which the melting point was over 300 °C.
On the same count and under the same terms, the value for `Cc1cc(Nc2ccc(NC(=O)c3ccc(Nc4ccnc5c(F)c(F)c(F)cc45)cc3)cc2)nc(N)n1` (as salt: hydrochloride) [Cpd. KK, n-[4-(2-amino-6-methylpyrimidin-4-ylamino)phenyl]-4-(6,7,8-trifluoroquinolin-4-ylamino)benzamide dihydrochloride] was over 280 °C; that for `C/C(=N\N=C(N)N)c1ccc(NC(=O)c2ccc(Nc3ccnc4ccc(N(C)C)cc34)cc2)cc1` (as salt: hydrochloride) [Cpd. NN, (E)-N-(4-(1-((Diaminomethylene)hydrazono)ethyl)phenyl)-4-(6-(dimethylamino)quinolin-4-ylamino)benzamide Dihydrochloride] was over 280 °C; that for `C/C(=N\N=C(N)N)c1ccc(C(=O)Nc2ccc(Nc3ccnc4ccc(N(C)C)cc34)cc2)cc1` (as salt: hydrochloride) [Cpd. PP, 4-[(1E)-N-(diaminomethylene)ethanehydrazonoyl]-N-(4-{[6-(dimethylamino)-4-quinolinyl]amino}phenyl)benzamide dihydrochloride] was over 300 °C.
Molecule `Nc1cc(Nc2cccc(C(=O)Nc3ccc(Nc4ccnc5ccc([N+](=O)[O-])cc45)cc3)c2)nc(N)n1` (as salt: hydrochloride) [Cpd. RR1, 3-[(2,6-diamino-4-pyrimidinyl)amino]-N-{4-[(6-nitro-4-quinolinyl)amino]phenyl}benzamide dihydrochloride] came in with a melting point of over 300 °C.
In the case of `Cc1cc(Nc2cccc(C(=O)Nc3ccc(Nc4ccnc5ccc([N+](=O)[O-])cc45)cc3)c2)nc(N)n1` (as salt: hydrochloride) [RR2, 3-[(2-amino-6-methyl-4-pyrimidinyl)amino]-N-{4-[(6-nitro-4-quinolinyl)amino]phenyl}benzamide dihydrochloride], the melting point is over 300 °C.
As for `Cc1cc(Nc2cccc(C(=O)Nc3ccc(Nc4ccnc5ccc(N)cc45)cc3)c2)nc(N)n1` (as salt: hydrochloride) [RR3, 3-[(2-Amino-6-methyl-4-pyrimidinyl)amino]-N-{4-[(6-amino-4-quinolinyl)amino]phenyl}benzamide dihydrochloride], the melting point lay in the range of 280 to 284 °C.
For the molecule `Cc1cc(Nc2ccc(NC(=O)c3ccc(Nc4ccnc5ccc(Cl)cc45)cc3)cc2)nc(N)n1` [Cpd. LL, N-[4-(2-amino-6-methylpyrimidin-4-ylamino)phenyl]-4-(6-chloroquinolin-4-ylamino)benzamide], the melting point lay within 250 to 254 °C. At DNMT1, the % DNMT1 protein level remaining at 5 µM came to 70% and the % DNMT1 protein level remaining at 10 µM amounted to 15%.
For the molecule `CN(C)c1ccc2nccc(Nc3ccc(NC(=O)c4cccc(Nc5cc[n+](C)cc5)c4)cc3)c2c1` [Cpd. OO1, 6-(dimethylamino)-4-[4-({3-[(1-methyl-4-pyridiniumyl)amino]benzoyl}amino)anilino]-quinolinium dichloride], the melting point lay in the range of 170 to 173 °C. In addition, at DNMT1, the % DNMT1 protein level remaining at 5 µM was 25% and the % DNMT1 protein level remaining at 10 µM came to 15%.
`CN(C)c1ccc2nccc(Nc3ccc(NC(=O)c4ccc(Nc5cc[n+](C)cc5)cc4)cc3)c2c1` [Cpd. OO2, 6-(Dimethylamino)-4-[4-({4-[(1-methyl-4-pyridiniumyl)amino]benzoyl}amino)-anilino]quinolinium dichloride]: the melting point was 156 °C (dec.). On DNMT1, the % DNMT1 protein level remaining at 5 µM worked out at 50% and the % DNMT1 protein level remaining at 10 µM worked out at 95%.
Regarding `C[n+]1ccc(Nc2ccc(NC(=O)c3ccc(Nc4ccnc5cc(N)ccc45)cc3)cc2)cc1` [Cpd. W, 1-methyl-4-[4-(4-{7-aminoquinolin-4-ylamino}benzamido)-phenylamino]pyridinium dichloride], the melting point is 242 to 245 °C. On DNMT1, the % DNMT1 protein level remaining at 5 µM was determined as 45% and the % DNMT1 protein level remaining at 10 µM was 75%.
